#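 Step 1: Grow cells in 96-well plates. Step 2: Expose to compound for 48 hours at 5 concentrations. Step 3: Interpolate endpoints linearly; if unreached, use highest concentration. GI50 marks 50% less growth. TGI: total growth inhibition.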
# What was measured:
# Experiment in all cases: growth of human tumour cells (NCI), 48 h
# HCT-15 colon = system: HCT-15 colon
# HCC-2998 colon = system: HCC-2998 colon
# MALME-3M melanoma = system: MALME-3M melanoma
# 786-0 renal = system: 786-0 renal
# MCF7 breast = system: MCF7 breast
# BT-549 breast = system: BT-549 breast
# HOP-92 NSCLC = system: HOP-92 NSCLC
# U251 CNS = system: U251 CNS
# ACHN renal = system: ACHN renal
# MOLT-4 leukemia = system: MOLT-4 leukemia
Compound,GI50 (HCT-15 colon),TGI (HCT-15 colon),GI50 (HCC-2998 colon),TGI (HCC-2998 colon),GI50 (MALME-3M melanoma),TGI (MALME-3M melanoma),GI50 (786-0 renal),TGI (786-0 renal),GI50 (MCF7 breast),TGI (MCF7 breast),GI50 (BT-549 breast),TGI (BT-549 breast),GI50 (HOP-92 NSCLC),TGI (HOP-92 NSCLC),GI50 (U251 CNS),TGI (U251 CNS),TGI (ACHN renal),TGI (MOLT-4 leukemia),GI50 (ACHN renal),GI50 (MOLT-4 leukemia)
O=C1C(Cl)=C(NCCCN(CCCNC2=C(Cl)C(=O)c3ccccc3C2=O)C2=C(Cl)C(=O)c3ccccc3C2=O)C(=O)c2ccccc21,1.66 µM,3.78 µM,2.45 µM,6.37 µM,1.62 µM,3.29 µM,4.62 µM,18.2 µM,1.48 µM,3.89 µM,2.5 µM,13.5 µM,2.23 µM,14 µM,2.66 µM,6.27 µM,–,–,–,–
N#Cc1ccc(C2SCc3nc4ccccc4n32)cc1 (stereo unspecified),–,> 100 µM,–,> 100 µM,–,> 100 µM,–,> 100 µM,–,–,–,–,–,–,–,> 100 µM,> 100 µM,> 100 µM,–,–
CN(C)c1ccc2[nH]c3c(C(N)=O)cc(=O)c(=O)c=3oc2c1,0.766 µM,> 100 µM,4.9 µM,> 100 µM,1.81 µM,4.45 µM,3.19 µM,22.2 µM,1.64 µM,8.64 µM,–,–,1.72 µM,8.58 µM,1.8 µM,9.8 µM,8.98 µM,8.53 µM,0.767 µM,0.861 µM
N=C(CC(=O)Nc1ccccn1)c1ccccc1,–,> 100 µM,–,–,–,> 100 µM,–,> 100 µM,–,> 100 µM,–,> 100 µM,–,> 100 µM,–,> 100 µM,> 100 µM,> 100 µM,–,–
O=C(N/C(=C\c1ccc(/C=C(\NC(=O)c2ccccc2)c2nc3c(O)nc(S)nc3[nH]2)cc1)c1nc2c(O)nc(S)nc2[nH]1)c1ccccc1,–,> 100 µM,–,> 100 µM,–,> 100 µM,–,> 100 µM,–,–,–,–,–,> 100 µM,–,> 100 µM,> 100 µM,> 100 µM,–,–
O=C(C(=CN1CCN(C(=O)c2ccco2)C1=S)C(=O)c1ccccc1)c1ccccc1,2.63 µM,20.7 µM,–,–,3.05 µM,43.3 µM,8.23 µM,19.2 µM,–,–,9.96 µM,26.4 µM,27 µM,> 50 µM,2.66 µM,25.8 µM,16.5 µM,> 50 µM,5.75 µM,15.2 µM
O=C1Cc2cc(CCN3CCNCC3)c(Cl)cc2N1,6.23 µM,> 100 µM,46.6 µM,> 100 µM,–,–,> 100 µM,> 100 µM,3.65 µM,> 100 µM,8.18 µM,> 100 µM,–,–,7.79 µM,> 100 µM,> 100 µM,> 100 µM,> 100 µM,> 100 µM
CCC(c1ccccc1)c1cc(C(C)(C)C)cc(C(C)(C)C)c1O (stereo unspecified),–,30.5 µM,–,29.2 µM,–,26.8 µM,–,29 µM,–,35.7 µM,–,33.4 µM,–,30.1 µM,–,31.5 µM,32.6 µM,–,–,–
NC(=O)c1ncn(C2OC(CO)C(O)C2O)c1O (stereo unspecified),–,> 100 µM,–,> 100 µM,–,> 100 µM,–,> 100 µM,–,–,–,–,–,> 100 µM,–,> 100 µM,> 100 µM,> 100 µM,–,–
Cc1cc(N2CCOCC2)nc(NCc2cc(Nc3ccnc4cc(Cl)ccc34)ccc2F)n1,1.7 µM,3.3 µM,1.67 µM,3.26 µM,1.98 µM,3.68 µM,1.83 µM,3.35 µM,0.348 µM,1.5 µM,1.72 µM,3.53 µM,–,–,1.63 µM,3.12 µM,3.33 µM,3.66 µM,1.83 µM,1.4 µM
Clc1ccc(-c2nc(NCc3ccco3)c3ccccc3n2)c(Cl)c1,13.1 µM,42.7 µM,18.2 µM,46.9 µM,12.9 µM,32.4 µM,20 µM,56.1 µM,6.38 µM,> 100 µM,–,–,4.94 µM,74.7 µM,16.5 µM,47.4 µM,58.3 µM,> 100 µM,7.81 µM,9.16 µM
CCN(CC)c1c(C)nnn1C1OC(COC(C)=O)C(OC(C)=O)C(OC(C)=O)C1OC(C)=O (stereo unspecified),–,> 100 µM,–,> 100 µM,–,> 100 µM,–,> 100 µM,–,–,–,–,–,> 100 µM,–,> 100 µM,> 100 µM,> 100 µM,–,–
CCCCOC(=O)NC(=O)c1cn(CCCOC(=O)CCCCCCCCC(=O)OCCCn2cc(C(=O)NC(=O)OCCCC)c(=O)n(C)c2=O)c(=O)n(C)c1=O,–,> 100 µM,–,> 100 µM,–,> 100 µM,–,> 100 µM,–,–,–,–,–,> 100 µM,–,> 100 µM,> 100 µM,> 100 µM,–,–
C=CCSC(C)=O,–,> 100 µM,–,> 100 µM,–,> 100 µM,–,> 100 µM,–,> 100 µM,–,> 100 µM,–,–,–,> 100 µM,> 100 µM,–,–,–
O=C(Oc1c(Cl)cc(Cl)cc1Cl)c1ccccc1Nc1ccnc(C(F)(F)F)c1,2.7 µM,10.6 µM,–,–,–,–,2.95 µM,11.1 µM,4.68 µM,> 100 µM,2.42 µM,6.98 µM,> 100 µM,> 100 µM,3.04 µM,9.32 µM,6.52 µM,–,2.46 µM,–
COc1ccc2nc3ccccc3c(NCCCCN(CCCl)CCCl)c2c1,–,> 43 µM,–,6.06 µM,–,0.725 µM,–,1.64 µM,–,5.23 µM,–,–,–,–,–,1.83 µM,1.15 µM,< 0.0369 µM,–,–
Cc1c(-c2ccccn2)ccc2ccccc12,–,> 100 µM,–,> 100 µM,–,> 100 µM,–,> 100 µM,–,> 100 µM,–,–,–,> 100 µM,–,> 100 µM,> 100 µM,> 100 µM,–,–
Cc1ccc(Nc2nc(-c3ccc(-c4ccc([N+](=O)[O-])cc4)o3)cs2)cc1,–,> 100 µM,–,97 µM,–,> 100 µM,–,> 100 µM,–,–,–,–,–,> 100 µM,–,> 100 µM,> 100 µM,> 100 µM,–,–
